# Experimental data from ChEMBL document CHEMBL4808205, “Discovery of TAK-041: a Potent and Selective GPR139 Agonist Explored for the Treatment of Negative Symptoms Associated with Schizophrenia” (J Med Chem, 2021).
# What was measured:
# [1] = Volume of distribution in rat at 1 mg/kg, iv or 2 mg/kg, po; type: ADME, organism-based; conditions: in vivo
# [2] = Bioavailability in rat at 1 mg/kg, iv; type: ADME, organism-based; conditions: in vivo, po 2 mg/kg vs iv 1 mg/kg
# MDR1 (human) = test: Permeability across apical to basolateral side in pig LLC-PK1 cells expressing human MDR1; type: ADME, cell-based, Sus scrofa; conditions: read-out: permeability
# [3] = Lipophilicity, logD of compound; type: physicochemical; conditions: octanol/water
# [4] = Free drug concentration in BALB/c mouse brain; type: ADME, tissue-based; conditions: in vivo
# [5] = Cmax in rat at 1 mg/kg, iv or 2 mg/kg, po; type: ADME, organism-based; design: dose 2 mg/kg; conditions: in vivo
# MDR1 = test: Apparent permeability in dog MDCK-MDR1 cells; type: ADME, cell-based, Canis lupus familiaris
# [6] = Oral bioavailability in mouse at 30 mg/kg after 1 hr; type: ADME, organism-based; conditions: in vivo
SMILES,Vd [1] [L/kg],bioavailability [2] [%],Papp A→B (MDR1 (human)) [×10⁻⁶ cm/s],logD [3],Drug uptake(free) [4] [nM],Cmax [5] [ng/mL],Papp (MDR1) [×10⁻⁶ cm/s],bioavailability [6] [%]
O=C(Cn1nnc2ccccc2c1=O)NCCc1ccc(Cl)cc1,–,–,–,–,–,–,9.1,–
C[C@H](NC(=O)Cn1nnc2ccccc2c1=O)c1ccc(C(F)(F)F)cc1,1.4,> 100,–,–,< 10,644,–,–
Cc1ccc([C@H](C)NC(=O)Cn2nnc3ccccc3c2=O)cc1,2.1,27,–,–,–,94,–,30
COc1ccc2nnn(CC(=O)N[C@@H](C)c3ccc(C)cc3)c(=O)c2c1,0.6,2,–,–,–,15,–,–

# Now from value to molecule:
Vd [1] [L/kg],bioavailability [2] [%],Papp A→B (MDR1 (human)) [×10⁻⁶ cm/s],logD [3],Drug uptake(free) [4] [nM],Cmax [5] [ng/mL],Papp (MDR1) [×10⁻⁶ cm/s],bioavailability [6] [%],SMILES
1,100,18.3,2.4,< 10,961,–,–,C[C@H](NC(=O)Cn1nnc2ccccc2c1=O)c1ccc(OC(F)(F)F)cc1 [ZELATRIAZIN]
0.4,50,–,–,< 10,541,–,–,COc1cccc2nnn(CC(=O)N[C@@H](C)c3ccc(C)cc3)c(=O)c12
